Among the test systems are HT-29; SW-620; MDA-N; SF-268; NCI-H226; NCI/ADR-RES; SNB-19; U-251; M14; KM12; UACC-62; MOLT-4; A549; PC-3; HL-60; HCC 2998; HCT-15; RXF 393; HOP-62.
Common to all, as to experiment: DTP human tumour cell line panel, 48 h

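Test compounds were applied to cells in 96-well plates for 48 hours at 5 doses. GI50 = concentration required for 50% inhibition of growth.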 Activity calls are given as the source filed them. Rule as the data show it: active = GI50 up to about 1.1 µM and inactive = higher.

By GI50 is commonly meant the concentration giving 50% growth inhibition. Regarding `Cc1cccc2c1nc1n2C(=O)c2ccccc2-1`, the GI50 with HT-29, in the assay with SW-620, in the assay on MDA-N, with SF-268, in the assay with NCI-H226 and with NCI/ADR-RES was > 100 µM (inactive) in each case. In addition, the GI50 in the assay with SNB-19, in the assay with U-251, with M14, with KM12, in the assay on UACC-62 and with MOLT-4 was > 100 µM (inactive) each time. Further, the GI50 in the assay with A549 was > 100 µM (inactive); with PC-3, > 100 µM (inactive); with HL-60, > 100 µM (inactive); in the assay on HCC 2998, > 100 µM (inactive); with HCT-15, more than 100 µM; in the assay with RXF 393, > 100 µM (inactive).

For `O=c1oc2ccc(Cl)cc2cc1C1=CSC2=NCCN12`, the GI50 was 18.8 µM (inactive) in the assay on HT-29; 24.6 µM (inactive) in the assay with SW-620; 20.8 µM (inactive) in the assay with MDA-N; 17.8 µM (inactive) in the assay on SF-268; 44.4 µM (inactive) in the assay on NCI/ADR-RES; 17.4 µM (inactive) in the assay with HOP-62. The GI50 with SNB-19 is 25 µM (inactive); in the assay on U-251 it was 23.2 µM (inactive); in the assay on M14, 31.6 µM (inactive); in the assay on KM12, 19.8 µM (inactive); in the assay on UACC-62 it was 19.5 µM (inactive); in the assay with MOLT-4 it was 17.9 µM (inactive). For the same compound, the GI50 was 40.7 µM (inactive) with A549; 21.7 µM (inactive) in the assay on PC-3; 21.7 µM (inactive) in the assay on HL-60; 14 µM (inactive) in the assay with HCC 2998; 18.9 µM in the assay on HCT-15; 21.3 µM (inactive) in the assay on RXF 393.

For the compound `NC(=O)OCc1c(-c2ccccc2)nn(-c2ccccc2)c1COC(N)=O`, the GI50 with HT-29, with SW-620, with MDA-N, with SF-268, in the assay with NCI-H226 and in the assay with NCI/ADR-RES was > 100 µM (inactive) in each case. Further, the GI50 in the assay on SNB-19, in the assay with U-251, in the assay on M14, in the assay with KM12, with UACC-62 and in the assay with A549 was > 100 µM (inactive) throughout. Moreover, the GI50 in the assay on PC-3 is > 100 µM (inactive); with HCC 2998 it was > 100 µM (inactive); with HCT-15 it was more than 100 µM; in the assay with RXF 393, > 100 µM (inactive).

For `CC(=O)NC(C)c1ccc(/N=N/N2CCCC2)cc1` (stereo unspecified), the GI50 in the assay with HT-29, with SW-620, in the assay on MDA-N, with SF-268, in the assay on NCI-H226 and in the assay with NCI/ADR-RES was > 100 µM (inactive) in each case. Further, the GI50 in the assay on HOP-62, in the assay with SNB-19, with U-251, with M14, in the assay with KM12 and in the assay with A549 was > 100 µM (inactive) each time. In addition, the GI50 in the assay on PC-3 is > 100 µM (inactive); in the assay on HL-60 it was 27.4 µM (inactive); with HCC 2998, > 100 µM (inactive); with HCT-15, more than 100 µM; in the assay with RXF 393, > 100 µM (inactive).

For `CC(=O)NC1=C(Sc2ccc(Cl)cc2)C(=O)c2ccccc2C1=O`, the GI50 with HT-29 is 12.2 µM (inactive); in the assay with SW-620, 1.95 µM (inactive); with MDA-N, 1.76 µM (inactive); in the assay with SF-268 it was 2.53 µM (inactive); in the assay on NCI-H226, 10.6 µM (inactive); with NCI/ADR-RES it was 2.37 µM (inactive). The GI50 in the assay on SNB-19 was 13.2 µM (inactive); with U-251, 3.84 µM (inactive); in the assay with KM12 it was 4.75 µM (inactive); in the assay with UACC-62 it was 2.61 µM (inactive); with MOLT-4, 0.374 µM (active); in the assay with A549, 11.5 µM (inactive). In addition, the GI50 in the assay with PC-3 is 2.77 µM (inactive); in the assay with HL-60 it was 0.285 µM (active); with HCC 2998, 14.7 µM (inactive); with HCT-15 it was 4.15 µM; with RXF 393 it was 1.86 µM (inactive).

As for `N#CSCc1cccc(Nc2cc(=O)[nH]c(=O)[nH]2)c1`, the GI50 with HT-29 is 37.2 µM (inactive); with SW-620, 55.6 µM (inactive); in the assay with MDA-N, 52.4 µM (inactive); in the assay on SF-268 it was 28.8 µM (inactive); with NCI-H226, 48.3 µM (inactive); in the assay with NCI/ADR-RES it was > 100 µM (inactive). In addition, the GI50 was > 100 µM (inactive) in the assay with HOP-62; > 100 µM (inactive) in the assay on SNB-19; 94.4 µM (inactive) in the assay with U-251; 52 µM (inactive) in the assay on M14; 97.1 µM (inactive) in the assay with KM12; 26.7 µM (inactive) in the assay with UACC-62. The GI50 was > 100 µM (inactive) in the assay on A549; > 100 µM (inactive) with PC-3; 43.3 µM (inactive) in the assay on HCC 2998; 56.6 µM in the assay with HCT-15; > 100 µM (inactive) with RXF 393.

`COC1CCON1C(=O)c1ccccc1` (stereo unspecified): the GI50 in the assay with HT-29, with SW-620, in the assay on MDA-N, in the assay with SF-268, with NCI-H226 and with NCI/ADR-RES was > 10 µM (inactive) each time. The GI50 in the assay on HOP-62, with SNB-19, with M14, in the assay with MOLT-4, with A549 and in the assay on PC-3 was > 10 µM (inactive) in each case. Moreover, the GI50 in the assay on HL-60 was > 10 µM (inactive); in the assay with HCC 2998 it was > 10 µM (inactive); in the assay on HCT-15, more than 10 µM; with RXF 393, > 10 µM (inactive).

As for `CCOC(=O)CNC(=O)CNC(=O)CNC(=O)CNNc1c(OCc2ccccc2)c(=O)c1=O`, the GI50 with HT-29, with SW-620, with MDA-N, in the assay with SF-268, with NCI-H226 and in the assay with NCI/ADR-RES was > 100 µM (inactive) throughout. Also, the GI50 in the assay on HOP-62, with SNB-19, in the assay with U-251, in the assay on M14, in the assay on KM12 and with UACC-62 was > 100 µM (inactive) each time. The GI50 with MOLT-4 was > 100 µM (inactive); with A549, > 100 µM (inactive); in the assay on PC-3, > 100 µM (inactive); in the assay with HCC 2998, > 100 µM (inactive); in the assay on HCT-15, more than 100 µM; in the assay on RXF 393 it was > 100 µM (inactive).

Turning to `COC(=O)C1(C(=O)OC)N=C(C)OC1c1ccoc1` (stereo unspecified), the GI50 in the assay with SW-620, in the assay with MDA-N, in the assay with NCI-H226, in the assay on NCI/ADR-RES, in the assay with HOP-62 and in the assay on SNB-19 was > 100 µM (inactive) each time. The GI50 in the assay with U-251, in the assay on M14, with KM12, with UACC-62, with MOLT-4 and in the assay on A549 was > 100 µM (inactive) each time. Besides, the GI50 in the assay on PC-3 is > 100 µM (inactive); with HL-60, > 100 µM (inactive); in the assay on HCC 2998 it was > 100 µM (inactive); in the assay on HCT-15 it was more than 100 µM; in the assay on RXF 393, > 100 µM (inactive).

As for `CCOc1cc(C=O)c2c(ccc3ccc(OC)c(OC)c32)c1OC`, the GI50 is 37.5 µM (inactive) in the assay with HT-29; 57 µM (inactive) in the assay with MDA-N; > 100 µM (inactive) in the assay with SF-268; 67.1 µM (inactive) in the assay on NCI-H226; 17.5 µM (inactive) in the assay with NCI/ADR-RES; > 100 µM (inactive) with SNB-19. Further, the GI50 in the assay with U-251 was 88.9 µM (inactive); in the assay with M14 it was 89.3 µM (inactive); in the assay on KM12, 27.2 µM (inactive); in the assay on UACC-62, 67.8 µM (inactive); in the assay on MOLT-4 it was 13.3 µM (inactive); in the assay on A549 it was 46.1 µM (inactive). For the same compound, the GI50 in the assay on PC-3 was 17.7 µM (inactive); in the assay with HL-60, 24.4 µM (inactive); with HCC 2998 it was 83.8 µM (inactive); in the assay on HCT-15 it was 49.7 µM; with RXF 393 it was > 100 µM (inactive).

With `CN(CCc1ccc(Br)cc1)CCN1CCCCC1`, the GI50 in the assay with HT-29 is 12.7 µM (inactive); in the assay with SW-620, 33.5 µM (inactive); in the assay on MDA-N, 22.6 µM (inactive); with SF-268, 65.3 µM (inactive); in the assay on NCI-H226 it was 33.4 µM (inactive); in the assay on NCI/ADR-RES, 46.5 µM (inactive). Further, the GI50 in the assay on HOP-62 was 31.8 µM (inactive); with SNB-19 it was > 100 µM (inactive); with U-251, 39.5 µM (inactive); with M14 it was 22.8 µM (inactive); in the assay on KM12 it was 21.1 µM (inactive); in the assay on MOLT-4, 31 µM (inactive). Moreover, the GI50 in the assay with A549 is 43.4 µM (inactive); in the assay on PC-3, 27.2 µM (inactive); in the assay with HCC 2998 it was 33.7 µM (inactive); in the assay with HCT-15 it was 60.5 µM; in the assay on RXF 393 it was 36.4 µM (inactive).

As to `C=C(C)[C@@]12C[C@H](OC(=O)[C@H](O)[C@@H](NC(=O)c3ccccc3)c3ccccc3)C(C)=C1[C@@H](OC(C)=O)C(=O)[C@@]1(C)C([C@@H]2OC(=O)c2cc(F)cc(F)c2)C2(OC(C)=O)CO[C@@H]2C[C@@H]1O` (stereo partly specified), the 50% growth inhibitory concentration (GI50) in the assay on HT-29 is 0.0278 µM (active); in the assay with SW-620 it was 0.0505 µM (active); in the assay with MDA-N, 0.0133 µM (active); with SF-268, 0.161 µM (active); with NCI-H226, 0.883 µM (active); with NCI/ADR-RES, 1.57 µM (inactive). Also, the GI50 in the assay on HOP-62 was 0.123 µM (active); in the assay on SNB-19, 0.238 µM (active); with U-251, 0.0822 µM (active); with M14, 0.141 µM (active); in the assay with UACC-62, 0.076 µM (active); with MOLT-4, 0.0428 µM (active). Further, the GI50 in the assay on A549 is 0.0752 µM (active); in the assay with PC-3, 0.0826 µM (active); in the assay on HL-60 it was 0.0269 µM (active); with HCC 2998, 0.0668 µM (active); in the assay with HCT-15, 0.292 µM; with RXF 393, 0.0578 µM (active).

Source of the values: ChEMBL document CHEMBL1201862, “PubChem BioAssay data set” (2004).
